How the values were obtained:
Format in all cases: physicochemical
[1] = Mechanical stress evaluation: dynamic vapor sorption (DVS)
Experimental: (§1) Compound 1, produced generally according to the method of Example 5, was evaluated for changes induced mechanical stress conditions, where crystallinity was evaluated by XRPD and where thermoanalytic characteristics were measured by differential scanning calorimetry (“DSC”), thermogravimetric analysis (“TGA”) and dynamic vapor sorption (“DVS”).
(§2) About 500 mg of compound 1 was dry grinded for about 5 minutes at ambient conditions with a mortar and pestle in order to simulate shear stresses encountered during a dry granulation. […] Furthermore, thermoanalytic data as measured by DSC, TGA, and DVS was only marginally different from compound 1 starting material (see Table 12 below).
(§3) The effect of pressure on compound 1 was performed to investigate whether phase transformation could occur during tableting. The conditions were 1.8 T/5 mm compact, 900 MPa, about 30 mg of compound 1, and a dwell time of about 6 seconds). The tablets were analyzed without further treatment and after gentle crushing of the tablets with a pestle. […] FIG. 2 pattern (b) is the XRPD pattern for crushed tablets. FIG. 2 pattern (c) is the XRPD pattern for tablets that were not crushed.
(§4) To simulate wet milling, wet manual grinding experiments were done. About 500 mg of compound 1 and about 0.5 mL water were kneaded for about 5 minutes with a mortar and pestle. About 100 mg of the wet material was analyzed by XRPD. The remainder of the material was dried overnight in an oven at 50° C. and ambient pressure. The dried material was analyzed by […], DSC, TGA, and DVS.

[2] = Crystallization study: crystalline form by XRPD
Experimental: In Example 14, X-ray powder diffraction (“XRPD”), a sample of compound 1 was prepared in an open quartz glass capillary with a diameter of 0.9 mm (and was not further processed, such as by grinding). A Stoe high-low temperature attachment (working range −50 to 300) with a NiCr/Ni thermocouple for temperature measurement controlled the respective temperature conditions. The measurements were carried out with a rotating capillary and the following parameters. STOE STADI diffractometer; MYTHEN 1K detector; CuKα, 1.5406 Å radiation; Ge monochromator; 40 kV, 40 mA; moving scan; 1800 seconds per step; 2θ=3-42 degrees; 5° C./min ramp rate; and 5° C. temperature step.
Compound 1 was prepared from crude compound 1 according to the following procedure. Crude compound 1 (46 kg) was dissolved in 1080 kg of isopropyl acetate at 88.6° C. After cooling to 71° C., the solution was passed through a pre-washed and pre-heated charcoal filter. The charcoal filter was rinsed with 400 kg of hot isopropyl acetate. Under reduced pressure, the volume of the combined filtrates was concentrated to a total of 760 to 780 L. The resulting suspension was heated to 88° C. Isopropyl acetate was then added in portions (85 kg in total) to achieve complete dissolution at 88° C. The solution was cooled to 69° C. leading to a suspension which was then cooled to 0° C. within 190 minutes, and stirred at this temperature for 900 minutes. The product was isolated by filtration and rinsed with portions of cold isopropyl acetate (400 kg in total). After drying at […]/10 mbar for about 40 hours, 38.5 kg (approx. 84% of theoretical yield) of crystallized compound 1 was obtained.
Crystalline compound 1 was evaluated. Crystallization study procedures were done based on the solubility of compound 1 in the solvent under evaluation as follows.
The results are presented below in Table 10 where: * refers to compound 1 prepared as described above; and ** refers to compound 1 prepared as described above and further incubated at 100% relative humidity at 22° C. for 17 days.

[3] = Mechanical stress evaluation: crystallinity by XRPD
Experimental: as §1
In a first evaluation, compound 1 was micronized by jet milling and evaluated by XRPD and DSC.
as §2, §3, §4

[4] = Mechanical stress evaluation: thermogravimetric analysis (TGA)
Experimental: as §1, §2, §3, §4

[5] = after Dry Granulation (dry grinding about 5 minutes, mortar and pestle)
[6] = after Wet Granulation (wet manual grinding with water, dried at 50° C.)
[7] = untreated compound 1 starting material

## Nc1ncc(-c2cc(N3C[C@@H]4C[C@H]3CO4)nc(N3CCC(F)(F)C3)n2)cc1OC(F)F [Compound 1, 5-(6-((1S,4S)-2-oxa-5-azabicyclo[2.2.1]heptan-5-yl)-2-(3,3-difluoropyrrolidin-1-yl)pyrimidin-4-yl)-3-(difluoromethoxy)pyridin-2-amine]
[1]; [5]
  DVS Δm (0-90% RH): 0.1% m/m
[1]; after Tableting (900 MPa)
  DVS Δm (0-90% RH): <0.1% m/m
[1]; after Tableting (crushing)
  DVS Δm (0-90% RH): 0.1% m/m
[1]; [6]
  DVS Δm (0-90% RH): <0.1% m/m
[1]; compacted (tableted) samples versus starting material
  hygroscopicity by DVS: did not show a significant increase of hygroscopicity
[1]; [7]
  DVS Δm (0-90% RH): <0.1% m/m
[2]; * compound 1 as prepared (crystallized from isopropyl acetate)
  Crystalline Form: Form A
[2]; ** as prepared and further incubated at 100% relative humidity at 22° C. for 17 days
  Crystalline Form: Form A
[2]; crystallization study solvent: 2-methyl THF
  Crystalline Form: Form A
[2]; crystallization study solvent: 5% water in ethanol
  Crystalline Form: Form A
[2]; crystallization study solvent: 5% water in isopropanol
  Crystalline Form: Form A
[2]; crystallization study solvent: 5% water in methanol
  Crystalline Form: Form A
[2]; crystallization study solvent: 5% water in propanol
  Crystalline Form: Form A
[2]; crystallization study solvent: 15% water in THF
  Crystalline Form: Form A
[2]; crystallization study solvent: 15% water in acetone
  Crystalline Form: Form A
[2]; crystallization study solvent: 15% water in ethanol
  Crystalline Form: Form A
[2]; crystallization study solvent: 15% water in isopropanol
  Crystalline Form: Form A
[2]; crystallization study solvent: 15% water in methanol
  Crystalline Form: Form A
[2]; crystallization study solvent: 15% water in propanol
  Crystalline Form: Form A
[2]; crystallization study solvent: 20% water in acetonitrile
  Crystalline Form: Form A
[2]; crystallization study solvent: 50% water in acetonitrile
  Crystalline Form: Form A
[2]; crystallization study solvent: 50% water in ethanol
  Crystalline Form: Form A
[2]; crystallization study solvent: 50% water in isopropanol
  Crystalline Form: Form A
[2]; crystallization study solvent: 50% water in methanol
  Crystalline Form: Form A
[2]; crystallization study solvent: 50% water in propanol
  Crystalline Form: Form A
[2]; crystallization study solvent: 80% water in acetonitrile
  Crystalline Form: Form A
[2]; crystallization study solvent: Acetic acid
  Crystalline Form: Form A
[2]; crystallization study solvent: Acetone
  Crystalline Form: Form A
[2]; crystallization study solvent: Acetonitrile
  Crystalline Form: Form A
[2]; crystallization study solvent: Butanol
  Crystalline Form: Form A
[2]; crystallization study solvent: Chloroform
  Crystalline Form: Form A
[2]; crystallization study solvent: DMA
  Crystalline Form: Form A
[2]; crystallization study solvent: DMF
  Crystalline Form: Form A
[2]; crystallization study solvent: DMSO
  Crystalline Form: Form A
[2]; crystallization study solvent: Dichloromethane
  Crystalline Form: Form A
[2]; crystallization study solvent: Diisopropylamine
  Crystalline Form: Form A
[2]; crystallization study solvent: Dimethyl carbonate
  Crystalline Form: Form A
[2]; crystallization study solvent: Dioxane
  Crystalline Form: Form A
[2]; crystallization study solvent: Ethanol
  Crystalline Form: Form A
[2]; crystallization study solvent: Ethyl acetate
  Crystalline Form: Form A
[2]; crystallization study solvent: Isopropanol
  Crystalline Form: Form A
[2]; crystallization study solvent: Isopropyl acetate
  Crystalline Form: Form A
[2]; crystallization study solvent: MEK
  Crystalline Form: Form A
[2]; crystallization study solvent: MIBK
  Crystalline Form: Form A
[2]; crystallization study solvent: MTBE
  Crystalline Form: Form A
[2]; crystallization study solvent: Methanol
  Crystalline Form: Form A
[2]; crystallization study solvent: NMP
  Crystalline Form: Form A
[2]; crystallization study solvent: Nitromethane
  Crystalline Form: Form A
[2]; crystallization study solvent: Propanol
  Crystalline Form: Form A
[2]; crystallization study solvent: THF
  Crystalline Form: Form A
[2]; crystallization study solvent: Toluene
  Crystalline Form: Form A
[2]; crystallization study solvent: Water
  Crystalline Form: Form A
[2]; crystallization study solvent: i-Butanol
  Crystalline Form: Form A
[2]; crystallization study solvent: n-Heptane
  Crystalline Form: Form A
[2]; crystallization study solvent: s-butanol
  Crystalline Form: Form A
[3]; after manual wet milling and after hot drying of wet milled material
  crystallinity by XRPD: No reduction in the crystallinity
[3]; dry grinded about 5 minutes with mortar and pestle (simulated dry granulation)
  crystallinity by XRPD: No reduction of crystallinity
[3]; micronized by jet milling
  influence on crystallinity: no significant influence on crystallinity
[3]; tableting, 900 MPa, dwell about 6 seconds, with and without crushing of the tablets
  crystallinity by XRPD: some reduction of crystallinity
[4]; [5]
  TGA Total wt. loss: 0.2% m/m
[4]; after Tableting (900 MPa)
  TGA Total wt. loss: 0.3% m/m
[4]; after Tableting (crushing)
  TGA Total wt. loss: 0.3% m/m
[4]; [6]
  TGA Total wt. loss: 0.2% m/m
[4]; [7]
  TGA Total wt. loss: 0.1% m/m
